Key:
[1] = target: T1, 3-beta-hydroxysteroid-Delta(8),Delta(7)-isomerase (Cavia porcellus, UniProt Q60490); test: Displacement of [3H]emopamil from Delta-(8)-Delta-(7) sterol isomerase in guinea pig liver membrane; assay type: cell membranes
T1 sequence (Q60490 whole entry): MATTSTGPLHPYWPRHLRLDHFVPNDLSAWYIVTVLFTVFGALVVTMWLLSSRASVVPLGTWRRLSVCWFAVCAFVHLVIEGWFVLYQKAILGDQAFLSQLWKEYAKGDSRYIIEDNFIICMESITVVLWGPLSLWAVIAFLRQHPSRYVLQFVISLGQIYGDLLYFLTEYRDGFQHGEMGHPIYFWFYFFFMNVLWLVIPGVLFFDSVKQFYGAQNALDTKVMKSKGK

[2] = target: Sigma non-opioid intracellular receptor 1 (Cavia porcellus, UniProt Q60492); test: Displacement of [3H]pentazocine from Sigma1 receptor in guinea pig brain membrane; assay type: cell membranes
[3] = Displacement of [3H]DTG from sigma2 receptor in Wistar rat liver membrane in presence of 1 uM […]; assay type: cell membranes
[4] = Selectivity for sigma1 receptor over sigma2 receptor
[5] = (§1) Binding affinity to sigma2 receptor in Wistar rat liver membrane; assay type: cell membranes
Rattus norvegicus = species on record: Rattus norvegicus; test: as §1; assay type: cell membranes

Chain of Sigma non-opioid intracellular receptor 1 (Q60492 whole entry): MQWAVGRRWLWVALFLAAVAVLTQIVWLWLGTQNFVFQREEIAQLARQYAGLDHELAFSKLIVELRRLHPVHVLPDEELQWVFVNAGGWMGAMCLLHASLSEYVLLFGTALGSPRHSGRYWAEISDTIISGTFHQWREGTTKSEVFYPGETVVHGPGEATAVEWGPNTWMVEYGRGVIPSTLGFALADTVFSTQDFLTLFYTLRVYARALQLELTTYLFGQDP

| Ki [1] | Ki [2] | Ki [3] | Ratio Ki [4] | Kd [5] | Bmax (Rattus norvegicus) | Compound |
| --- | --- | --- | --- | --- | --- | --- |
| 42.4 nM | 0.9 nM | 8.27 nM | 9 |  |  | COc1ccc2cccc(CCCN3CCN(C4CCCCC4)CC3)c2c1 |
| 79.9 nM | 3450 nM | 12.6 nM | 0.004 |  |  | c1ccc2c(c1)c1ccccc1n2CCCN1CCN(C2CCCCC2)CC1 |
| 21.3 nM | 6.78 nM | 26.4 nM | 4 | 21.3 nM | 0.47 pmol/mg | Oc1ccc2c(CCCN3CCN(C4CCCCC4)CC3)cccc2c1 |
| 4.51 nM |  | 9.24 nM |  |  |  | COc1cccc2c(CCCN3CCN(C4CCCCC4)CC3)cccc12 |
| 7.06 nM | 3.16 nM | 9.02 nM | 3 |  |  | COc1ccc2c(CCCN3CCN(C4CCCCC4)CC3)cccc2c1 |
|  |  |  | 680 |  |  | COc1ccc2c(CCCN3CCCC(C)(C)C3)cccc2c1 |
| 352 nM | 340 nM | 600 nM | 2 |  |  | CC1(C)CCCN(CCCc2cccc3cc(O)ccc23)C1 |
| 30 nM | 733 nM | 412 nM | 0.6 |  |  | CC1(C)CCCN(CCCc2cccc3ccc(O)cc23)C1 |
| 55 nM | 5.48 nM | 11.8 nM | 2 |  |  | Oc1ccc2cccc(CCCN3CCN(C4CCCCC4)CC3)c2c1 |

Second part, the compound before the results:

| Compound | Ki [1] | Ki [2] | Ki [3] | Ratio Ki [4] | Kd [5] | Bmax (Rattus norvegicus) |
| --- | --- | --- | --- | --- | --- | --- |
| COc1cccc2c(CCCN3CCCC(C)(C)C3)cccc12 | 12.8 nM | 44.9 nM | 643 nM | 14 |  |  |
| CC(C(O)c1ccc(O)cc1)N1CCC(Cc2ccccc2)CC1 (racemic) [IFENPRODIL] | 19.8 nM |  |  |  |  |  |
| CC1(C)CCCN(CCCCCn2c3ccccc3c3ccccc32)C1 | 24 nM | 138 nM | 117 nM | 0.8 |  |  |
| Cc1ccccc1NC(=N)Nc1ccccc1C [DITOLYLGUANIDINE] |  |  | 30.8 nM |  |  |  |
| CC1(C)CCCN(CCCn2c3ccccc3c3ccccc32)C1 | 345 nM | 2020 nM | 4480 nM | 2 |  |  |
| COc1ccc2cccc(CCCN3CCCC(C)(C)C3)c2c1 | 4.12 nM | 115 nM | 672 nM | 6 |  |  |
| CC1(C)CCCN(CCCCn2c3ccccc3c3ccccc32)C1 | 270 nM | 175 nM | 520 nM | 3 |  |  |
